Paper PMC6009888, “Design, synthesis, and pharmacological evaluation of 2-amino-5-nitrothiazole derived semicarbazones as dual inhibitors of monoamine oxidase and cholinesterase: effect of the size of aryl binding site” (Journal of Enzyme Inhibition and Medicinal Chemistry, 2017)
“And” between values parts separate entries of the source, which are not always exact repeats. Identical values can stand only once. Like-named read-outs stand apart in the source and are kept apart here.

Key:
[1] = In vitro DPPH radical scavenging assay; conditions: test sample 100 µg/ml, 100 µM methanolic DPPH, 30 min, 517 nm
Method: Antioxidant activity of the synthesised compounds (10 mg/ml) was evaluated using the radical scavenging capability against the stable free radical, 2,2′-diphenyl-1-picryl hydrazyl (DPPH·). The DPPH· scavenging capability was determined using UV based spectrophotometric assay. About 200 µl of the test sample solution (100 µg/ml) was added to 4 ml of 100 µM methanolic DPPH. […] Ascorbic acid (100 µg/ml) was used as reference. The percentage inhibition of DPPH activity was estimated using the formula: Percent (%) inhibition of DPPH activity = Acontrol-Asample/Acontrol×100 where Acontrol is the absorbance of DPPH· in methanol without an antioxidant and Asample is the absorbance of DPPH· in the presence of an antioxidant.

[2] = biological target: T1, MAO-B (Rattus norvegicus, UniProt P19643); experiment: biochemical; conditions: for SI (selectivity index for MAO-B): ratio of experimental IC50(MAO-A)/IC50(MAO-B)
T1 construct: employing crude rat brain mitochondrial suspension; from tissue; host or cells: brain mitochondria of adult Wistar rats
T1 sequence (P19643 1-520): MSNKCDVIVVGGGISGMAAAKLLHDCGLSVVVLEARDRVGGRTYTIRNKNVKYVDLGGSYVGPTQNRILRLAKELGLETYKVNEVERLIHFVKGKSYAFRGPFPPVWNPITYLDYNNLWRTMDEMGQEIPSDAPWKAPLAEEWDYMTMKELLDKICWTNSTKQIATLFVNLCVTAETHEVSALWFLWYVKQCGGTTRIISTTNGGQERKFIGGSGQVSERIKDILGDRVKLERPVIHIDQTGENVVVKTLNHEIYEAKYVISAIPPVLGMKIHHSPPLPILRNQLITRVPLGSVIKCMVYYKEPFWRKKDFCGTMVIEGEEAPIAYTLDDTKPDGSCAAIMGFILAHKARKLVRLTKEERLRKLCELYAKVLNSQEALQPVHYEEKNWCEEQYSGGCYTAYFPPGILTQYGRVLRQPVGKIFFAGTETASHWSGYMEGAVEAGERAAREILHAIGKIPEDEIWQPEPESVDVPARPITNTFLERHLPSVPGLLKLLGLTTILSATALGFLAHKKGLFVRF
Method: (§1) Rat brain mitochondria were used as a source of MAO isoforms. All operations were carried out at 4 °C[50]. Male and female adult Wistar rats weighing 200–220 g were decapitated. All brains were rapidly removed and homogenised with a Potter–Elvehjem homogeniser in cold 0.32 M sucrose and 50 mM Tris-HCl, pH 8.2 (10:1, v/w). The homogenate was centrifuged twice at 1000 g for 5 min at 4 °C. The resulting supernatant was centrifuged at 20,000 g for 20 min. The mitochondrial pellet obtained was suspended in 100 mM sodium phosphate buffer, pH 7.4 (4:1, v/w), fractionated in plastic vials to 500 µl samples and stored at −80 °C. Before use, mitochondria were diluted with 100 mM sodium phosphate buffer to give a working solution of 0.80 mg of protein per millilitre.
(§2) The experiments were carried out under all the suitable laboratory conditions. […] An aliquot was made to contain mixture of 55 µl mitochondrial suspension (0.80 mg of protein/ml), 90 µl 50 mM Tris-HCl buffer, pH 8.2 and 30 µl solubilising solution (control or inhibitor solution at five different concentrations). The reaction was initiated by adding 25 µl of serotonin (4 mM, substrate for MAO-A) and 25 µl benzylamine (0.1 M, substrate for MAO-B) for the determination of MAO-A and MAO-B activity, respectively. The mixture was incubated at 37 °C for 30 min and the reaction was stopped by the addition of 50 µl of 1 N HCl. The absorbance associated with the production of 5-hydroxyindolacetic acid was measured at 280 nm for the estimation of MAO-A while for MAO-B estimation, the absorbance was measured at 250 nm due to the formation of benzaldehyde. All the assays were performed in triplicate. Control experiments were carried out without inhibitor and blanks were run without mitochondrial suspension.
(§3) Data are expressed as mean ± standard error mean (SEM) of experiments performed in triplicate.
(§4) 0, 15, 30 and 60 min at 37 °C in Tris-HCl buffer (50 mM, pH 8.2). […] The reactions were further incubated at 37 °C for a further 15 min and the residual enzyme activities were measured and the bar graphs were constructed. All measurements were carried out in triplicate and are expressed as mean ± SEM.

[3] = biological target: T2, MAO-A (Rattus norvegicus, UniProt P21396); experiment: In vitro MAO-A inhibition assay (rat brain mitochondria, serotonin substrate); format: biochemical; conditions: rat brain mitochondria, serotonin substrate, mean ± SEM, triplicate
T2 construct: employing crude rat brain mitochondrial suspension; from tissue; host or cells: brain mitochondria of adult Wistar rats
T2 sequence (P21396 1-526): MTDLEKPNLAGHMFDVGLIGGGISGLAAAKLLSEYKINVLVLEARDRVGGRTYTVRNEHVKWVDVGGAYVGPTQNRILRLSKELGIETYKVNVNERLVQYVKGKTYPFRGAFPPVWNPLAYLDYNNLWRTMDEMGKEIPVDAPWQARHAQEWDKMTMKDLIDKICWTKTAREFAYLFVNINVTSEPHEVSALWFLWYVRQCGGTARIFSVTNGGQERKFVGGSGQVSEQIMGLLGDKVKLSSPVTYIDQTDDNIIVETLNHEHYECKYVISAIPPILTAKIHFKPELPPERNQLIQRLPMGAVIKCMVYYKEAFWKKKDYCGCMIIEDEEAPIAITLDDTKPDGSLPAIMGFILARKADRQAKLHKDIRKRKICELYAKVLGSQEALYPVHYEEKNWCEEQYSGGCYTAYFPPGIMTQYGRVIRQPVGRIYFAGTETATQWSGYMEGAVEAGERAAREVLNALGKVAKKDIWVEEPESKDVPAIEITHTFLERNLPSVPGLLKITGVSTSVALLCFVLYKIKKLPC
Method: as §1, §2, §3, §4

[4] = biological target: T3, rat brain AChE (Rattus norvegicus, UniProt P37136); experiment: biochemical; format: biochemical; conditions: for IC50: rat brain AChE, ACTI substrate, mean ± SEM, triplicate
T3 construct: the resulting clear supernatants obtained were used as enzyme sources; from tissue; host or cells: rat brain cortex homogenate, 10,000 g supernatant
T3 sequence (P37136 32-614): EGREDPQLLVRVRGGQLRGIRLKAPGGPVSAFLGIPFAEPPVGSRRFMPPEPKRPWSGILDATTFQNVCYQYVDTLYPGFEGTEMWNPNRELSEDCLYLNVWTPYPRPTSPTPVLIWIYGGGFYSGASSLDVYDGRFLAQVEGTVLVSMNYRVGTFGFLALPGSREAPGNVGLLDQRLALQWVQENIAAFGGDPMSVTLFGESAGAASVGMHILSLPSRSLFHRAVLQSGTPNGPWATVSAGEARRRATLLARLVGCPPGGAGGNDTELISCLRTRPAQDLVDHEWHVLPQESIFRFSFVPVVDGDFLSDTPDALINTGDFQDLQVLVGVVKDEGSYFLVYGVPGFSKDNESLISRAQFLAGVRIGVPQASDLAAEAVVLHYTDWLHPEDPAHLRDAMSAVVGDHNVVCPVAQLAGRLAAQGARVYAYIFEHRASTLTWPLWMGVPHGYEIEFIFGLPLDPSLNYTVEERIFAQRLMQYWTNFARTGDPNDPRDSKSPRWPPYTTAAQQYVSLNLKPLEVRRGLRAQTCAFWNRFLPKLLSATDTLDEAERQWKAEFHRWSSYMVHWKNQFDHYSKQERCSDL
Method: Rat brain was used as a source of AChE enzyme. Rats were separately decapitated, the brain cortices quickly removed, weighed and homogenised in cold 10 mM Tris-HCl buffer, pH 7.2, containing 160 mM sucrose. The homogenates were centrifuged at 10,000 g for 10 min at 4 °C, and the resulting clear supernatants obtained were used as enzyme sources that were divided into aliquots and stored at −20 °C.
About 30 µl of enzyme sample (AChE) was added to 60 µl of 20 mM sodium phosphate buffer (pH 7.4) and were incubated in the presence of 30 µl of 10 mM DTNB solution with different concentrations of the test compounds. The enzyme reaction was initiated by the addition of 30 µl of 0.8 mM ACTI. The mixtures were incubated for 15 min at 25 °C. […] Control experiments were carried out without inhibitor, and blanks were run without AChE enzyme. All the assays were performed in triplicate. IC50 values were determined using the GraphPad Prism 5.0 (San Diego, CA) and the results were expressed as mean ± SEM.
as §4, with “25” for “37”, “sodium phosphate” for “Tris-HCl”, “(20” for “(50”, “7.4) and DTNB solution (10 mM).” for “8.2).”, “reaction was” for “reactions were”

[5] = physchem
[6] = system: mice; experiment: Neurotoxicity screening (rotarod test); format: in vivo; conditions: for Neurotoxicity (animals that exhibit toxicity / animals tested): 30 mg/kg i.p.
Method: The neurotoxicity screening was undertaken according to the method followed by the National Institute of Health, using their reported procedures[55]^,[56]. Male albino mice (CF-1 strain or Swiss, 18–25 g) were used as experimental animals. The animals were housed in metabolic cages, and allowed free access to food and water. The test compounds were suspended in 0.5% methylcellulose/water mixture or in polyethylene glycol (PEG 200).
Minimal motor impairment was measured in mice by the rotarod test. The mice were trained to stay on an accelerating rotarod that rotates at six revolutions per minute. The rod diameter was 3.2 cm. Trained animals were given i.p. injection of the selected inhibitors at a dose of 30 mg/kg. Neurotoxicity was indicated by the inability of the animal to maintain equilibrium on the rod for at least 1 min in each of the three trials.

[7] = read-out: MAO-A In vitro IC50 (µM) ± SEM
[8] = read-out: AChE In vitro IC50 (µM) ± SEM

| Structure (SMILES) | % inhibition of DPPH activity [1] [%] | IC50 [2] [µM] | SI (selectivity index for MAO-B) [2] | IC50 [3, 7] | IC50 [4, 8] [µM] | logP ([5]; octanol/water) | Neurotoxicity (animals that exhibit toxicity / animals tested) ([6]; 0.5 h) | Neurotoxicity (animals that exhibit toxicity / animals tested) ([6]; 1 h) | Neurotoxicity (animals that exhibit toxicity / animals tested) ([6]; 2 h) | Neurotoxicity (animals that exhibit toxicity / animals tested) ([6]; 4 h) | other results |
| --- | --- | --- | --- | --- | --- | --- | --- | --- | --- | --- | --- |
| O=C1O[C@H]([C@@H](O)CO)C(O)=C1O [Ascorbic acid, reference compound] | 61.24 | – | – | – | – | – | – | – | – | – | – |
| CC(=NNC(=O)Nc1ncc([N+](=O)[O-])s1)c1ccc(F)cc1 [Compound 6, 1-(1-(4-Fluorophenyl)ethylidene)-4-(5-nitrothiazol-2-yl)semicarbazide] | 30.43 | 19.89 ± 0.032 | 2316.04 | > 100 µM and 46100 µM | 468 ± 4.98 | 1.3 | – | – | – | – | AChE: fold decrease in activity versus bromo substitution (compound 4) ([4]; halogen at carbimino terminal phenyl ring): > 1000 fold |
| O=C(NN=C(CBr)c1ccc(Br)cc1)Nc1ncc([N+](=O)[O-])s1 [Compound 9, 1-(2-Bromo-1-(4-bromophenyl)ethylidene)-4-(5-nitrothiazol-2-yl)semicarbazide] | 35.89 | 0.313 ± 0.007 | 1003.19 | 314 ± 1.89 µM | 3.926 ± 0.014 | – | 2/4 | 1/4 | 0/4 | 0/4 | Neurotoxicity (verdict in words) ([6]; 30 mg/kg, relative to phenytoin): moderately neurotoxic |
| CC(=NNC(=O)Nc1ncc([N+](=O)[O-])s1)c1ccc(O)cc1 [Compound 7, 1-(1-(4-Hydroxyphenyl)ethylidene)-4-(5-nitrothiazol-2-yl)semicarbazide] | – | 14.75 ± 0.018 | 399.93 | 5899 ± 9.84 µM | 12.7 ± 0.62 | 1.2 | 0/4 | 0/4 | 0/4 | 0/4 | MAO-B: fold greater potency relative to compound 11 ([2]; ratio of IC50 values): ~16.37 fold; AChE: fold greater potency relative to compound 11 ([4]; ratio of IC50 values): ~46 fold |
| O=C(NN=Cc1ccc(O)cc1)Nc1ncc([N+](=O)[O-])s1 [Compound 11, 1-(4-Hydroxybenzylidene)-4-(5-nitrothiazol-2-yl)semicarbazide] | – | 241.5 ± 2.31 | 46.96 | 11340 ± 11.7 µM | 584 ± 7.92 | 1.6 | – | – | – | – | – |
| COc1ccc(OC)c(C=NNC(=O)Nc2ncc([N+](=O)[O-])s2)c1 [Compound 15, 1-(2,5-Dimethoxybenzylidene)-4-(5-nitrothiazol-2-yl)semicarbazide] | 10.58 | 11.1 ± 0.19 | 4945.91 | > 100 µM and 55000 µM | 872 ± 4.38 | – | – | – | – | – | – |
| CC(=NNC(=O)Nc1ncc([N+](=O)[O-])s1)c1ccc([N+](=O)[O-])cc1 [Compound 8, 1-(1-(4-Nitrophenyl)ethylidene)-4-(5-nitrothiazol-2-yl)semicarbazide] | 11.60 | 23.88 ± 0.022 | 114.86 | – | – | – | – | – | – | – | IC50 ([3]; MAO-A In vitro IC50 (µM) ± SEM): 2743 ± 3.65 µM; IC50 ([4]; AChE In vitro IC50 (µM) ± SEM): 45.5 ± 1.36 µM; logP [5]: 1.4 |
| O=C(NN=Cc1c(Cl)cccc1Cl)Nc1ncc([N+](=O)[O-])s1 [Compound 14, 1-(2,6-Dichlorobenzylidene)-4-(5-nitrothiazol-2-yl)semicarbazide] | 55.29 | 16.9 ± 0.37 | 821.43 | 13910 ± 19.7 µM | 10.7 ± 0.56 | 3.1 | – | – | – | – | MAO-B: fold less active than compound 13 ([2]; isomeric dichloro derivatives): ~4.85 fold |
| O=C1NC(=O)C(c2ccccc2)(c2ccccc2)N1 [Phenytoin, reference compound] | – | – | – | – | – | – | 0/4 | 0/4 | 0/4 | 0/2 | – |
| O=C(NN=Cc1ccc(Br)cc1)Nc1ncc([N+](=O)[O-])s1 [Compound 10, 1-(4-Bromobenzylidene)-4-(5-nitrothiazol-2-yl)semicarbazide] | – | 5.451 ± 0.009 | 945.33 | 5153 ± 8.82 µM | 96.4 ± 2.81 | 2.5 | – | – | – | – | – |
